Results reported in patent publication US7989464B2, “mGluR1 antagonists as therapeutic agents” (Schering Corporation, priority 2004, dated 2011).

target: T1, hmGluR1 receptor (Homo sapiens, UniProt Q13255); test: IC50 determination: intracellular calcium mobilization (FLIPR) upon Quisqualate stimulation in CHO cells stably expressing hmGluR1; format: cell-based; conditions: against Quisqualate 1 μM (EC80), FLIPR calcium mobilization, read-out: IC50 Class
T1 construct: expressed in transfected cells
Description: A CHO cell line stably expressing hmGluR1 receptor was established. One day prior to assay, cells were split in growth media at concentration of 50,000 cells/well in a volume of 100 μl and seeded into black clear-bottom 96-well plates. After two to six hours, when cells were well attached to the plate, growth medium was replaced with assay medium (100 μL) consisting of DMEM high glucose, supplemented with GPT (1 U/mL) and Sodium pyruvate, 1 mM. Following overnight incubation, medium was discarded and cells were loaded for 2 h with dye from the Calcium 3 Assay Reagent Kit (Molecular Devices, # R8033), prepared according to manufacturers' instructions. […] Test compounds were added 10 minutes before Quisqualate.

T1 sequence (Q13255 19-1194): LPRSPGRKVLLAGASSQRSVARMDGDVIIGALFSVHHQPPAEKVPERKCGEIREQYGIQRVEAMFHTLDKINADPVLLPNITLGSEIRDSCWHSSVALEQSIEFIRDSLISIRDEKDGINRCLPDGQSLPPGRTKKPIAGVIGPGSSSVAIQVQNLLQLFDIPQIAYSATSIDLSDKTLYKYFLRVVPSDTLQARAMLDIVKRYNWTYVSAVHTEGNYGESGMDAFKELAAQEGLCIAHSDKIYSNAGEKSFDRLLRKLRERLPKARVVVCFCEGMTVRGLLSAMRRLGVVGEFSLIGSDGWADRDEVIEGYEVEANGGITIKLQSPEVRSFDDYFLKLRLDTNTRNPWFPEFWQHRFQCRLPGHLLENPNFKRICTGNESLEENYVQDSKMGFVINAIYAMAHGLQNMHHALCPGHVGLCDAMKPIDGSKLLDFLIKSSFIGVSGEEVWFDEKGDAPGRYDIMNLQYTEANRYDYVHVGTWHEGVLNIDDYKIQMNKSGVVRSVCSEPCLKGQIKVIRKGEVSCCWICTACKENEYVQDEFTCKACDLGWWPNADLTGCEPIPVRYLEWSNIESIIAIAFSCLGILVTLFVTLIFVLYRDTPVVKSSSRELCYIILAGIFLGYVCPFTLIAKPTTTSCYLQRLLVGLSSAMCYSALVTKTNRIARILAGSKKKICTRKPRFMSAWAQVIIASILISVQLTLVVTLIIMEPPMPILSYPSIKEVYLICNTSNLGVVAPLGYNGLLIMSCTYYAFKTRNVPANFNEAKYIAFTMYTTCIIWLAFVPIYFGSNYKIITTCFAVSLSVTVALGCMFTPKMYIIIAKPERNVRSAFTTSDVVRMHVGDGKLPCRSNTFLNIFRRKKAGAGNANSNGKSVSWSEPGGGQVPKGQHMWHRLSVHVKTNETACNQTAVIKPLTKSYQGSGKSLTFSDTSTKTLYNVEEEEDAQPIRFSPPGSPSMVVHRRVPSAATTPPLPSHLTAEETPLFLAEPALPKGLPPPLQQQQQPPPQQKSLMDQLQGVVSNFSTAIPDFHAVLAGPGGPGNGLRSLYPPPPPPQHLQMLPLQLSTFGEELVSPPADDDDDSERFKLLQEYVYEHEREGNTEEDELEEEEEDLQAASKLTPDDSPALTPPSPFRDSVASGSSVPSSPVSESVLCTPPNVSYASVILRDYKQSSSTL

IC50 [nM] | SMILES
> 1000 | COc1ccc(-n2cnc3c(sc4nccc(OC)c43)c2=O)c(F)c1 [25E]
150 to 1000 | COc1ccnc2sc3c(=O)n(-c4ccc5c(c4)CCO5)cnc3c12 [25F]
150 to 1000 | CCc1ccc(-n2cnc3c(sc4nccc(OC)c43)c2=O)cc1 [25G]

same assay, conditions: against Quisqualate 1 μM (EC80), FLIPR calcium mobilization, read-out: mGluR1 IC50

IC50 [nM] | SMILES
1.73 | Cc1cc(-n2cnc3c(sc4nccc(N(C)C)c43)c2=O)ccc1Br [7DR]
1.71 | CN(C)c1ccnc2sc3c(=O)n(-c4ccc(Br)c(F)c4)cnc3c12 [7DV]
0.35 | CN(C)c1ccnc2sc3c(=O)n(C4CCCCC4)cnc3c12 [7Q]
0.68 | CN(C)c1ccnc2sc3c(=O)n(C4CCCCCC4)cnc3c12 [7X]
1.81 | Cc1ccc(-n2cnc3c(sc4nccc(NCC#N)c43)c2=O)cc1 [28AA]
1.27 | CNc1ccnc2sc3c(=O)n(-c4ccc(C)cc4)cnc3c12 [28AI]

same assay, conditions: against Quisqualate 1 μM (EC80), class symbols, read-out: mGIuR 1 IC50

IC50 [nM] | SMILES
< 50 | CN(C)c1ccnc2sc3c(=O)n(-c4ccc(C(F)(F)F)cc4)cnc3c12 [7DO]
50 to 150 | Cc1ccc(-n2cnc3c(sc4nccc(N(C)C)c43)c2=O)cc1C#N [7DP]
< 50 | Cc1ccc(-n2cnc3c(sc4nccc(N(C)C)c43)c2=O)cc1Br [7DQ]
< 50 | Cc1cc(-n2cnc3c(sc4nccc(N(C)C)c43)c2=O)ccc1Br [7DR]
150 to 1000 | CN(C)c1ccnc2sc3c(=O)n(-c4ccc(Br)c(C(F)(F)F)c4)cnc3c12 [7DS]
150 to 1000 | COc1cc(-n2cnc3c(sc4nccc(N(C)C)c43)c2=O)ccc1Br [7DT]
< 50 | CN(C)c1ccnc2sc3c(=O)n(-c4ccc(Br)cc4F)cnc3c12 [7DU]
< 50 | CN(C)c1ccnc2sc3c(=O)n(-c4ccc(Br)c(F)c4)cnc3c12 [7DV]
< 50 | Cc1ccc(-n2cnc3c(sc4nccc(N(C)C)c43)c2=O)c(F)c1 [7DW]
< 50 | Cc1cc(F)cc(-n2cnc3c(sc4nccc(N(C)C)c43)c2=O)c1 [7DX]
50 to 150 | Cc1ccc(-n2cnc3c(sc4nccc(N(C)C)c43)c2=O)cc1I [7DY]
< 50 | Cc1ccc(F)c(-n2cnc3c(sc4nccc(N(C)C)c43)c2=O)c1 [7DZ]
< 50 | CN(C)c1ccnc2sc3c(=O)n(-c4ccccc4)cnc3c12 [7D]
< 50 | Cc1cc(-n2cnc3c(sc4nccc(N(C)C)c43)c2=O)ccc1I [7EA]
> 1000 | CN(C)c1ccnc2sc3c(=O)[nH]cnc3c12 [7E]
50 to 150 | CN(C)c1ccnc2sc3c(=O)n(-c4ccccc4Cl)cnc3c12 [7F]
< 50 | CN(C)c1ccnc2sc3c(=O)n(-c4ccc(F)cc4)cnc3c12 [7G]
< 50 | CN(C)c1ccnc2sc3c(=O)n(-c4ccc(Br)cc4)cnc3c12 [7H]
> 1000 | CN(C)c1ccnc2sc3c(=O)n(Cc4ccc(Cl)cc4)cnc3c12 [7I]
> 1000 | CCOC(=O)N1CCC(n2cnc3c(sc4nccc(N(C)C)c43)c2=O)CC1 [7J]
< 50 | CN(C)c1ccnc2sc3c(=O)n(-c4ccc(C#N)cc4)cnc3c12 [7K]
< 50 | CN(C)c1ccnc2sc3c(=O)n(-c4cccc(Cl)c4)cnc3c12 [7L]
> 1000 | CN(C)c1ccnc2sc3c(=O)n(-c4ccc(I)cc4)cnc3c12 [7M]
150 to 1000 | CN(C)c1ccnc2sc3c(=O)n(-c4ccc(Cl)cc4I)cnc3c12 [7N]

IC50 [nM] | SMILES
50 to 150 | CN(C)c1ccnc2sc3c(=O)n(-c4cccnc4)cnc3c12 [7O]
50 to 150 | CCCCn1cnc2c(sc3nccc(N(C)C)c32)c1=O [7P]
< 50 | CN(C)c1ccnc2sc3c(=O)n(C4CCCCC4)cnc3c12 [7Q]
150 to 1000 | CN(C)c1ccnc2sc3c(=O)n(Cc4cccc(Cl)c4)cnc3c12 [7R]
> 1000 | CN(C)c1ccnc2sc3c(=O)n(Cc4ccc(Cl)c(Cl)c4)cnc3c12 [7S]
50 to 150 | COc1ccc(-n2cnc3c(sc4nccc(N(C)C)c43)c2=O)cc1Cl [7T]
50 to 150 | CN(C)c1ccnc2sc3c(=O)n(-c4ccccn4)cnc3c12 [7U]
> 1000 | COc1cc(-n2cnc3c(sc4nccc(N(C)C)c43)c2=O)c(OC)cc1Cl [7V]
< 50 | CN(C)c1ccnc2sc3c(=O)n(C4CCCC4)cnc3c12 [7W]
< 50 | CN(C)c1ccnc2sc3c(=O)n(C4CCCCCC4)cnc3c12 [7X]
< 50 | CN(C)c1ccnc2sc3c(=O)n(-c4ccc(OC(F)(F)F)cc4)cnc3c12 [7Y]
< 50 | CN(C)c1ccnc2sc3c(=O)n(-c4ccc(OC(F)F)cc4)cnc3c12 [7Z]
150 to 1000 | O=c1c2sc3c(ccc[n+]3[O-])c2ncn1-c1ccccc1 [12A]
50 to 150 | CN(C)c1cc[n+]([O-])c2sc3c(=O)n(-c4ccc(Cl)cc4)cnc3c12 [12B]
< 50 | CN(C)c1ccnc2sc3c(=O)n(-c4ccsc4)cnc3c12 [15AA]
< 50 | CN(C)c1ccnc2sc3c(=O)n(-c4cccs4)cnc3c12 [15AB]
> 1000 | Cc1nn(C)c(C)c1-n1cnc2c(sc3nccc(N(C)C)c32)c1=O [15AC]
50 to 150 | Cc1noc(-n2cnc3c(sc4nccc(N(C)C)c43)c2=O)c1C [15AD]
50 to 150 | Cc1cc(-n2cnc3c(sc4nccc(N(C)C)c43)c2=O)no1 [15AE]
150 to 1000 | CN(C)c1ccnc2sc3c(=O)n(-c4nnc(C(F)(F)F)s4)cnc3c12 [15AF]
< 50 | CN(C)c1ccnc2sc3c(=O)n(-c4csc5ccccc45)cnc3c12 [15AG]
> 1000 | CN(C)c1ccnc2sc3c(=O)n(CCO)cnc3c12 [15A]
150 to 1000 | CN(C)c1ccnc2sc3c(=O)n(CC4CC4)cnc3c12 [15B]
< 50 | CN(C)c1ccnc2sc3c(=O)n(CC4CCCCC4)cnc3c12 [15C]

IC50 [nM] | SMILES
> 1000 | COCCn1cnc2c(sc3nccc(N(C)C)c32)c1=O [15D]
50 to 150 | CN(C)c1ccnc2sc3c(=O)n(C4CCOCC4)cnc3c12 [15E]
150 to 1000 | CN(C)c1ccnc2sc3c(=O)n(CC4CCCO4)cnc3c12 (centres unmarked) [15F]
> 1000 | CN(C)c1ccnc2sc3c(=O)n(C4CCNCC4)cnc3c12 [15G]
150 to 1000 | CN(C)c1ccnc2sc3c(=O)n(Cc4ccco4)cnc3c12 [15H]
150 to 1000 | CN(C)c1ccnc2sc3c(=O)n(Cc4cccs4)cnc3c12 [15I]
50 to 150 | CN(C)c1ccnc2sc3c(=O)n(C4CCC4)cnc3c12 [15J]
> 1000 | CN(C)c1ccnc2sc3c(=O)n(C4CC4)cnc3c12 [15K]
> 1000 | CCCn1cnc2c(sc3nccc(N(C)C)c32)c1=O [15L]
> 1000 | CN(C)c1ccnc2sc3c(=O)n(C4CCC(C(C)(C)C)CC4)cnc3c12 (centres unmarked) [15M]
> 1000 | CN(C)c1ccnc2sc3c(=O)n(CCN4CCOCC4)cnc3c12 [15N]
> 1000 | CN(C)c1ccnc2sc3c(=O)n(CCN4CCCCC4)cnc3c12 [15O]
150 to 1000 | CN(C)c1ccnc2sc3c(=O)n(C(C)(C)C)cnc3c12 [15P]
< 50 | CN(C)c1ccnc2sc3c(=O)n(C4CCCCCCC4)cnc3c12 [15Q]
150 to 1000 | CN(C)c1ccnc2sc3c(=O)n([C@H]4CC[C@H](O)CC4)cnc3c12 [15T]
150 to 1000 | CN1CCC(n2cnc3c(sc4nccc(N(C)C)c43)c2=O)CC1 [15U]
150 to 1000 | CN(C)c1ccnc2sc3c(=O)n(Cc4ccsc4)cnc3c12 [15V]
> 1000 | CN(C)c1ccnc2sc3c(=O)n(-c4cc[nH]n4)cnc3c12 [15W]
> 1000 | CN(C)c1ccnc2sc3c(=O)n(-c4nncs4)cnc3c12 [15X]
< 50 | CN(C)c1ccnc2sc3c(=O)n(C4Cc5ccccc5C4)cnc3c12 [15Y]
< 50 | CC1CCC(n2cnc3c(sc4nccc(N(C)C)c43)c2=O)CC1 (centres unmarked) [15Z]
150 to 1000 | COc1ccnc2sc3c(=O)n(C4CCCCC4)cnc3c12 [25A]
150 to 1000 | COc1ccc(-n2cnc3c(sc4nccc(OC)c43)c2=O)cc1 [25B]
50 to 150 | COc1ccnc2sc3c(=O)n(-c4ccc(C)cc4)cnc3c12 [25C]

IC50 [nM] | SMILES
150 to 1000 | COc1ccnc2sc3c(=O)n(-c4ccc5scnc5c4)cnc3c12 [25D]
> 1000 | O=c1c2sc3nccc(O)c3c2ncn1C1CCCCC1 [26A]
> 1000 | Cc1ccc(-n2cnc3c(sc4nccc(O)c43)c2=O)cc1 [26C]
> 1000 | O=c1c2sc3nccc(OS(=O)(=O)C(F)(F)F)c3c2ncn1C1CCCCC1 [27A]
< 50 | Cc1ccc(-n2cnc3c(sc4nccc(NCC#N)c43)c2=O)cc1 [28AA]
< 50 | C#CCN(C)c1ccnc2sc3c(=O)n(-c4ccc(C)cc4)cnc3c12 [28AB]
< 50 | C=CCN(C)c1ccnc2sc3c(=O)n(-c4ccc(C)cc4)cnc3c12 [28AC]
50 to 150 | CC#CCNc1ccnc2sc3c(=O)n(-c4ccc(C)cc4)cnc3c12 [28AD]
< 50 | Cc1ccc(-n2cnc3c(sc4nccc(N(C)N)c43)c2=O)cc1 [28AE]
> 1000 | O=c1c2sc3nccc(N4CCC(O)CC4)c3c2ncn1C1CCCCC1 [28AF]
50 to 150 | O=c1c2sc3nccc(NCCO)c3c2ncn1C1CCCCC1 [28AG]
150 to 1000 | CC(C)Nc1ccnc2sc3c(=O)n(C4CCCCC4)cnc3c12 [28AH]
< 50 | CNc1ccnc2sc3c(=O)n(-c4ccc(C)cc4)cnc3c12 [28AI]
150 to 1000 | O=c1c2sc3nccc(NCC4CC4)c3c2ncn1C1CCCCC1 [28AJ]
< 50 | CCN(C)c1ccnc2sc3c(=O)n(-c4ccc(C)cc4)cnc3c12 [28AK]
< 50 | COc1ccc(-n2cnc3c(sc4nccc(NC5CC5)c43)c2=O)cc1 [28AL]
50 to 150 | COc1ccc(-n2cnc3c(sc4nccc(N5CCC5)c43)c2=O)cc1 [28AM]
< 50 | CCCN(C)c1ccnc2sc3c(=O)n(C4CCCCC4)cnc3c12 [28AN]
< 50 | CCCN(C)c1ccnc2sc3c(=O)n(-c4ccc(OC)cc4)cnc3c12 [28AO]
< 50 | Cc1ccc(-n2cnc3c(sc4nccc(NC5CC5)c43)c2=O)cc1 [28AP]
50 to 150 | CCN(CC)c1ccnc2sc3c(=O)n(-c4ccc(OC)cc4)cnc3c12 [28AQ]
< 50 | CCCNc1ccnc2sc3c(=O)n(-c4ccc(OC)cc4)cnc3c12 [28AR]
< 50 | CCCNc1ccnc2sc3c(=O)n(-c4ccc(C)cc4)cnc3c12 [28AS]
